Laboratory results reported in the supplement of paper PMC10307832.

Columns and labels:
Assay in all cases: relative viability (nuclei count vs DMSO), 5 days (fraction); higher = more cells survive
BEN = system: BEN
In short: (§1)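 After 5 days of treatment, lung cancer cells in 1536-well plates were fixed and stained in a single step (final 0.05% Triton X-100, 1% formaldehyde, 1 ug/ml Hoechst) and their nuclei counted on 4× images. Treatment had been applied by pin tool the day after seeding as one drug alone or as a fixed anchor-drug dose with five library-drug doses (not always all listed) in √10 steps. Relative viability is the nuclei count of treated wells divided by that of vehicle wells, and values are medians of duplicate plates.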

CAL-12T = system: CAL-12T
In short: as §1

COR-L 105 = system: COR-L 105
In short: as §1

COR-L23 = system: COR-L23
In short: as §1

HARA = system: HARA
In short: as §1

HCC-15 = system: HCC-15
In short: as §1

HCC-366 = system: HCC-366
In short: as §1

HCC-44 = system: HCC-44
In short: as §1

HCC-827 = system: HCC-827
In short: as §1

HOP-62 = system: HOP-62
In short: as §1

LC-2-ad = system: LC-2-ad
In short: as §1

LCLC-97TM1 = system: LCLC-97TM1
In short: as §1

Structure (SMILES): O=C(O)CCCCC(CCSCc1ccccc1)SCc1ccccc1 (configuration not stated) [CPI-613] + CS(=O)(=O)N1CCN(Cc2cc3nc(-c4cccc5[nH]ncc45)nc(N4CCOCC4)c3s2)CC1 [Pictilisib] (partner 1 µM)
- relative viability (BEN; first compound 5 µM): 0.527
- relative viability (BEN; first compound 15.81 µM): 0.423
- relative viability (BEN; first compound 50 µM): 0.503
- relative viability (BEN; first compound 158.11 µM): 0.452
- relative viability (BEN; first compound 500 µM): 0.495
- relative viability (CAL-12T; first compound 5 µM): 0.255
- relative viability (CAL-12T; first compound 15.81 µM): 0.393
- relative viability (CAL-12T; first compound 50 µM): 0.453
- relative viability (CAL-12T; first compound 158.11 µM): 0.385
- relative viability (CAL-12T; first compound 500 µM): 0.102
- relative viability (COR-L 105; first compound 5 µM): 0.399
- relative viability (COR-L 105; first compound 15.81 µM): 0.377
- relative viability (COR-L 105; first compound 50 µM): 0.38
- relative viability (COR-L 105; first compound 158.11 µM): 0.328
- relative viability (COR-L 105; first compound 500 µM): 0.288
- relative viability (COR-L23; first compound 5 µM): 0.639
- relative viability (COR-L23; first compound 15.81 µM): 0.689
- relative viability (COR-L23; first compound 50 µM): 0.621
- relative viability (COR-L23; first compound 158.11 µM): 0.393
- relative viability (COR-L23; first compound 500 µM): 0.007
- relative viability (HARA; first compound 5 µM): 0.474
- relative viability (HARA; first compound 15.81 µM): 0.409
- relative viability (HARA; first compound 50 µM): 0.281
- relative viability (HARA; first compound 158.11 µM): 0.242
- relative viability (HARA; first compound 500 µM): 0.084
- relative viability (HCC-15; first compound 5 µM): 0.604
- relative viability (HCC-15; first compound 15.81 µM): 0.664
- relative viability (HCC-15; first compound 50 µM): 0.603
- relative viability (HCC-15; first compound 158.11 µM): 0.629
- relative viability (HCC-15; first compound 500 µM): 0.238
- relative viability (HCC-366; first compound 5 µM): 0.149
- relative viability (HCC-366; first compound 15.81 µM): 0.144
- relative viability (HCC-366; first compound 50 µM): 0.154
- relative viability (HCC-366; first compound 158.11 µM): 0.12
- relative viability (HCC-366; first compound 500 µM): 0.157
- relative viability (HCC-44; first compound 5 µM): 0.546
- relative viability (HCC-44; first compound 15.81 µM): 0.611
- relative viability (HCC-44; first compound 50 µM): 0.589
- relative viability (HCC-44; first compound 158.11 µM): 0.469
- relative viability (HCC-44; first compound 500 µM): 0.0534
- relative viability (HCC-827; first compound 5 µM): 0.94
- relative viability (HCC-827; first compound 15.81 µM): 0.964
- relative viability (HCC-827; first compound 50 µM): 0.887
- relative viability (HCC-827; first compound 158.11 µM): 0.833
- relative viability (HCC-827; first compound 500 µM): 0.79
- relative viability (HOP-62; first compound 5 µM): 0.526
- relative viability (HOP-62; first compound 15.81 µM): 0.7
- relative viability (HOP-62; first compound 50 µM): 0.704
- relative viability (HOP-62; first compound 158.11 µM): 0.496
- relative viability (HOP-62; first compound 500 µM): 0.0332
- relative viability (LC-2-ad; first compound 5 µM): 0.455
- relative viability (LC-2-ad; first compound 15.81 µM): 0.427
- relative viability (LC-2-ad; first compound 50 µM): 0.473
- relative viability (LC-2-ad; first compound 158.11 µM): 0.211
- relative viability (LC-2-ad; first compound 500 µM): 0.0075
- relative viability (LCLC-97TM1; first compound 5 µM): 0.191
- relative viability (LCLC-97TM1; first compound 15.81 µM): 0.164
